From US20260215887A1, “COATING COMPOSITION FOR THE TREATMENT OR PREVENTION OF PERIIMPLANTITIS AND PREPARATION METHOD THEREOF” (UNIVERSITAT JAUME I, priority 2023, published 2026)

Columns and labels:
[1] = tested on: Streptococcus Gordonii (CECT 804); assay: Proliferation and bacterial count on inoculated grade-IV titanium disks; assay type: cell-based
Text: The mechanism of action of the composition of Example 1 was further investigated by studying in parallel assays the proliferation of bacterial population of Streptococcus Gordonii on grade-IV titanium plates which are either uncoated or coated with M1 (free of octenidine) or M3 (2% in weight of octenidine) or with a solution of octenidine having an equivalent amount of octenidine as the composition M3. The following experimental procedure was used.
All materials used were sterile or have been previously sterilized by autoclaving. The assays were performed inside a level 2 biosafety cabinet. Three different grade IV-Ti disks were used to perform the assay. This procedure was carried out for each of the assays: First, a suspension of Streptococcus Gordonii (CECT 804) of known concentration was prepared. For this purpose, a test tube is prepared with 10 mL of d.d. H2O to which bacteria were added until the desired concentration (Concentration=1×10^6 CFU/mL). […] 500 μL of bacterial suspension of known concentration (1×10^6 CFU/mL) was then added in wells of a sterile 24-well plate. Subsequently, the grade-IV Ti disc was immersed in the bacterial suspension for 1 minute (1 disk per well) in order to inoculate the disc. […]
Once this time was elapsed, bacteria population was counted. […]

Staphylococcus aureus = details: known in the art; cited from earlier work

Compound: CCCCCCCCN=c1ccn(CCCCCCCCCCn2ccc(=NCCCCCCCC)cc2)cc1 [octenidine]
- proliferation of bacteria population on coated disks ([1]; after 24 hours incubation at 37° C., FIG. 22): significant reduction of bacteria proliferation
- bacterial count of bacteria adhered to the titanium surface ([1]; average of three samples per disk, 24 h at 37° C., uncoated disk 1,726 × 10^7): 483,33 CFU/mL
- minimal bactericide concentration (MBC) (Staphylococcus aureus): < 2 µg/mL
- minimal inhibitory concentration (MIC) (Staphylococcus aureus): < 2 µg/mL
